Literature values in patent US12263217B2, “Nucleic acid stabilizing solution for vaccines, therapy, diagnostics, storage, and transport” (Daykin Molecular Systems, LLC, priority 2020, dated 2025).

## tris(hydroxymethyl)aminomethane
In vivo
  doses well tolerated: 3.6 grams/50 kg body weight
parenteral
  doses clinically used: up to 500 mg/kg weight
